Results taken from PubChem BioAssay AID2060618 (Molecular Pharmacology Branch, DTP, NCI, 2025).

Tested on: 454973-116-R2-J3-PDC spheroids, percent test/control viability
Test: Anticancer human tumor 454973-116-R2-J3-PDC patient-derived pancreatic carcinoma cell line growth inhibition [CLK]
Conditions: spheroids with HUVEC and MSC; for IC50: curve of first compound; for viability, T/C: stronger effect = lower value
From the text: A high-throughput screen of multi-cell type tumor spheroids was designed to identify active combinations of […] and targeted small molecules. Complex spheroids include a stromal component modeled by human endothelial cells (HUVEC) and fibroblasts modeled by human mesenchymal stem cells (MSCs). The concentration ranges selected for each drug and investigational agent were based upon clinically achievable concentrations if the clinical Cmax of the agent was known.
Compounds. The drugs and investigational agents: cirtuvivint (SM08502; NSC835563), CC-671 (NSC850746), vemurafenib (NSC761431), tapotoclax (NSC804041), sotorasib (NSC818433), adagrasib (NSC831453), MRTX-1133 (NSC836407), BAY2416964 (NSC825713), copanlisib (NSC816437), inavolisib (NSC800729), abemaciclib (NSC768073), osimertinib (NSC779217), entinostat (NSC756642), eltanexor (KPT-8602, NSC794443), venetoclax (NSC766270), ceralasertib (NSC777638), bortezomib (NSC756655), olaparib (NSC753686), talazoparib (NSC767125), alisertib (NSC759677), peposertib (NSC802822), gemcitabine (NSC613327), 5-fluorouracil (NSC19893), SN-38 (NSC673596), oxaliplatin (NSC266046), paclitaxel (NSC125973), and doxorubicin (NSC123127), were obtained from the National Cancer Institute (NCI) Developmental Therapeutics Program Chemical Repository. The FDA-approved anticancer drug set is available from the Developmental Therapeutics Program at https://dtp.cancer.gov/organization/dscb/obtaining/available plates.htm. […] The stock solutions were prepared in dimethyl sulfoxide (DMSO, Sigma-Aldrich, St. Louis, MO, cat. D2650), except for the platinum complexes which were prepared in saline (Quality Biological, Gaithersburg, MD, cat. 114-055-101), at 800-fold the tested concentration and stored at -70 degrees C prior to their use. All drugs and investigational agents were tested over a range starting from a high concentration at or near the clinical Cmax and decreasing in half-log increments. If the clinical Cmax for an agent had not been determined, the highest concentration tested was 10 microM.
Cell Culture. All cells were maintained in an incubator at 37 degrees C and 5% CO2 with 95% humidity. The PDC lines were cultured according to standard operating procedures established by the NCI PDMR. Briefly, all PDCs were thawed and cultured in Matrigel-coated flasks prepared with a working solution of 1X Ham's F-12 nutrient mix, without supplementation (Invitrogen, Waltham, MA, cat. 11765054), 100 U/mL penicillin-streptomycin (Invitrogen, cat. 15140122), and 2.5% Matrigel (Corning Inc., Corning, NY, cat. 354248) for the first three passages. The 947758-054-R-J2-PDC line was cultured in 6B/Colon 1A media, which includes advanced DMEM/F-12 (Thermo Fisher Scientific, cat. 12634028), 10 mM HEPES (Thermo Fisher Scientific, cat. 15630080), 1X GlutaMAX supplement (Thermo Fisher Scientific, cat. 35050061), 0.1 mg/mL primocin (InvivoGen, cat. ant-pm-2), 10% defined fetal bovine serum, heat inactivated (HyClone Laboratories Inc., cat. SH30070.03HI), 1.25 mM N-Acetyl-L-cysteine (Sigma-Aldrich, cat. A9165), 10 mM nicotinamide (Sigma-Aldrich, cat. N0636), 1X B-27 supplement (Thermo Fisher Scientific, cat. 17504044), 1X N-2 supplement (Thermo Fisher Scientific, cat. 17502048), and 10 microM Y-27632 dihydrochloride (Tocris Bioscience, cat. 1254). The 876862-298-R-J1-PDC was cultured in 6E media, which includes all 6B/Colon 1A media components plus 50% L-WRN conditioned media (ATCC, cat. CRL-3276), 50 ng/mL recombinant human EGF recombinant protein (hEGF; Thermo Fisher Scientific, cat. PHG0311), 10 ng/mL recombinant human fibroblast growth factor 10 (hGFG-10; PeproTech, cat. 100-26), 1 ng/mL recombinant human fibroblast growth factor 2 (hFGF-2; PeproTech, cat. 100-18B), and 1 µM prostaglandin E2 (PGE2; Tocris, cat. 2296). The 227483-062-R1-J1-PDC line was cultured in Panc media, containing all 6E components except hFGF-2, with the addition of 500 nM SB-431542 (Selleckchem, cat. S1067) and 10 nM gastrin (Tocris, cat. 3006). […]

[1] = second compound 0.0316 µM, first compound 0.0316 µM
[2] = second compound 0.0316 µM, first compound 0.1 µM
[3] = second compound 0.0316 µM, first compound 0.316 µM
[4] = second compound 0.0316 µM, first compound 1 µM
[5] = second compound 0.0316 µM, first compound 3.16 µM
[6] = second compound 0.0316 µM, first compound 10 µM
[7] = second compound 0.1 µM, first compound 0.0316 µM
[8] = second compound 0.1 µM, first compound 0.1 µM
[9] = second compound 0.1 µM, first compound 0.316 µM
[10] = second compound 0.1 µM, first compound 1 µM
[11] = second compound 0.1 µM, first compound 3.16 µM
[12] = second compound 0.1 µM, first compound 10 µM
[13] = second compound 0.316 µM, first compound 0.0316 µM
[14] = second compound 0.316 µM, first compound 0.1 µM
[15] = second compound 0.316 µM, first compound 0.316 µM
[16] = second compound 0.316 µM, first compound 1 µM
[17] = second compound 0.316 µM, first compound 3.16 µM
[18] = second compound 0.316 µM, first compound 10 µM
[19] = second compound 1 µM, first compound 0.0316 µM
[20] = second compound 1 µM, first compound 0.1 µM
[21] = second compound 1 µM, first compound 0.316 µM
[22] = second compound 1 µM, first compound 1 µM
[23] = second compound 1 µM, first compound 3.16 µM
[24] = second compound 1 µM, first compound 10 µM
[25] = second compound 3.16 µM, first compound 0.0316 µM
[26] = second compound 3.16 µM, first compound 0.1 µM
[27] = second compound 3.16 µM, first compound 0.316 µM
[28] = second compound 3.16 µM, first compound 1 µM
[29] = second compound 3.16 µM, first compound 3.16 µM
[30] = second compound 3.16 µM, first compound 10 µM
[31] = second compound 10 µM, first compound 0.0316 µM
[32] = second compound 10 µM, first compound 0.1 µM
[33] = second compound 10 µM, first compound 0.316 µM
[34] = second compound 10 µM, first compound 1 µM
[35] = second compound 10 µM, first compound 3.16 µM
[36] = second compound 10 µM, first compound 10 µM
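Also: spheroids exposed to compounds for 7 days before readout.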

O=C(c1cc(Cc2n[nH]c(=O)c3ccccc23)ccc1F)N1CCN(C(=O)C2CC2)CC1 + CNC(=O)c1ccc(Nc2nc(OC3CCCC3)c3c(-c4ccc5nc(C)oc5c4)c[nH]c3n2)c(OC)c1
IC50 (second compound 0.0316 µM): > 10000 nM
IC50 (second compound 0.1 µM): > 10000 nM
IC50 (second compound 0.316 µM): < 31.6 nM
IC50 (second compound 1 µM): < 31.6 nM
IC50 (second compound 3.16 µM): < 31.6 nM
IC50 (second compound 10 µM): < 31.6 nM
viability, T/C [1]: 94.7%
viability, T/C [2]: 107%
viability, T/C [3]: 98.4%
viability, T/C [4]: 104%
viability, T/C [5]: 94.6%
viability, T/C [6]: 75.9%
viability, T/C [7]: 101%
viability, T/C [8]: 105%
viability, T/C [9]: 95.8%
viability, T/C [10]: 101%
viability, T/C [11]: 92.8%
viability, T/C [12]: 77.4%
viability, T/C [13]: 39.6%
viability, T/C [14]: 52.1%
viability, T/C [15]: 40.9%
viability, T/C [16]: 51.4%
viability, T/C [17]: 47.8%
viability, T/C [18]: 40.3%
viability, T/C [19]: 36.5%
viability, T/C [20]: 33.9%
viability, T/C [21]: 31.4%
viability, T/C [22]: 33.3%
viability, T/C [23]: 29.9%
viability, T/C [24]: 24.3%
viability, T/C [25]: 32.3%
viability, T/C [26]: 33.2%
viability, T/C [27]: 35.1%
viability, T/C [28]: 32%
viability, T/C [29]: 29.4%
viability, T/C [30]: 22.5%
viability, T/C [31]: 26.3%
viability, T/C [32]: 33.6%
viability, T/C [33]: 30.4%
viability, T/C [34]: 29.4%
viability, T/C [35]: 28.2%
viability, T/C [36]: 23.8%

COC1C=CCC(C)C(C)S(=O)(=O)NC(=O)c2ccc3c(c2)N(CC2CCC21)CC1(CCCc2cc(Cl)ccc21)CO3 (stereo unspecified) + CN1CCN(c2cc(C(=O)Nc3cc4cc(-c5cnn(C)c5)ccc4cn3)ccn2)CC1
IC50 (second compound 0.0316 µM): 4900 nM
IC50 (second compound 0.1 µM): 621 nM
IC50 (second compound 0.316 µM): < 31.6 nM
IC50 (second compound 1 µM): < 31.6 nM
IC50 (second compound 3.16 µM): < 31.6 nM
IC50 (second compound 10 µM): < 31.6 nM
viability, T/C [1]: 102%
viability, T/C [2]: 97.9%
viability, T/C [3]: 92.9%
viability, T/C [4]: 92.8%
viability, T/C [5]: 75.8%
viability, T/C [6]: 8.72%
viability, T/C [7]: 64.4%
viability, T/C [8]: 74.1%
viability, T/C [9]: 52.7%
viability, T/C [10]: 43.8%
viability, T/C [11]: 27.5%
viability, T/C [12]: 2.54%
viability, T/C [13]: 1.25%
viability, T/C [14]: 2.28%
viability, T/C [15]: 2.09%
viability, T/C [16]: 1.79%
viability, T/C [17]: 1.28%
viability, T/C [18]: 0.38%
viability, T/C [19]: 0.11%
viability, T/C [20]: 0.13%
viability, T/C [21]: 2.8%
viability, T/C [22]: 0.16%
viability, T/C [23]: 0.14%
viability, T/C [24]: 0.13%
viability, T/C [25]: 0.17%
viability, T/C [26]: 0.17%
viability, T/C [27]: 0.99%
viability, T/C [28]: 0.25%
viability, T/C [29]: 0.33%
viability, T/C [30]: 0.2%
viability, T/C [31]: 0.21%
viability, T/C [32]: 0.17%
viability, T/C [33]: 0.9%
viability, T/C [34]: 0.28%
viability, T/C [35]: 0.67%
viability, T/C [36]: 0.21%

O=C(c1cc(Cc2n[nH]c(=O)c3ccccc23)ccc1F)N1CCN(C(=O)C2CC2)CC1 + CN1CCN(c2cc(C(=O)Nc3cc4cc(-c5cnn(C)c5)ccc4cn3)ccn2)CC1
IC50 (second compound 0.0316 µM): > 10000 nM
IC50 (second compound 0.1 µM): 5860 nM
IC50 (second compound 0.316 µM): < 31.6 nM
IC50 (second compound 1 µM): < 31.6 nM
IC50 (second compound 3.16 µM): < 31.6 nM
IC50 (second compound 10 µM): < 31.6 nM
viability, T/C [1]: 99%
viability, T/C [2]: 99.5%
viability, T/C [3]: 101%
viability, T/C [4]: 115%
viability, T/C [5]: 94.7%
viability, T/C [6]: 71.8%
viability, T/C [7]: 75.8%
viability, T/C [8]: 77%
viability, T/C [9]: 73.5%
viability, T/C [10]: 75.7%
viability, T/C [11]: 62.5%
viability, T/C [12]: 38%
viability, T/C [13]: 1.44%
viability, T/C [14]: 2.27%
viability, T/C [15]: 1.78%
viability, T/C [16]: 1.98%
viability, T/C [17]: 2.16%
viability, T/C [18]: 2.03%
viability, T/C [19]: 0.12%
viability, T/C [20]: 0.14%
viability, T/C [21]: 1.94%
viability, T/C [22]: 0.08%
viability, T/C [23]: 0.83%
viability, T/C [24]: 0.08%
viability, T/C [25]: 0.13%
viability, T/C [26]: 0.21%
viability, T/C [27]: 0.33%
viability, T/C [28]: 0.13%
viability, T/C [29]: 0.29%
viability, T/C [30]: 0.27%
viability, T/C [31]: 1.42%
viability, T/C [32]: 0.14%
viability, T/C [33]: 0.17%
viability, T/C [34]: 0.13%
viability, T/C [35]: 0.39%
viability, T/C [36]: 0.22%
